Our source for the IC50 growth inhibition values is the supplement of paper PMC8837787.

Each structure is given as a SMILES string. A value given as a limit tells only on which side of the number the result lay.

The subject of the assay is Saccharomyces cerevisiae ABC16-Green Monster. Conditions: 18 h; 30 °C; YPD. The protocol: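 Growth inhibition of the drug-sensitive S. cerevisiae ABC16-Green Monster strain (16 ABC transporters deleted) in YPD at 30 °C for 18 h. […] dilution series […] in biological replicates; IC50 from OD600 (18 h minus 0 h) fitted by variable-slope nonlinear regression in GraphPad Prism. Library compounds were first screened at 150 µM, and only those with at least 70% inhibition went to dose-response; the rest are marked inactive.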

On to `CC[P](CC)(CC)=[Au][S][C@H]1O[C@@H](COC(C)=O)[C@H](OC(C)=O)[C@@H](OC(C)=O)[C@@H]1OC(C)=O`, for which the IC50 growth inhibition is 28.2 µM. Consider `CCCOC(=O)C1=C(C)NC2=C(C(=O)CC(c3ccc(OC)c(OC)c3)C2)C1c1ccc(Cl)cc1Cl` (stereo not given) [GNF-Pf-5672], for which the IC50 growth inhibition amounted to 5.08 µM. Under `Cc1cc(C2CCCCC2)n(O)c(=O)c1` [Ciclopirox] stands 33.4 µM; under `Cc1c(C(=O)Nc2ccccc2O)cnn1-c1cccc(C(F)(F)F)c1`, 23.9 µM; under `C=CCc1ccc(O)c(-c2ccc(O)c(CC=C)c2)c1` [Honokiol], 13.2 µM.

With `COc1ccc(C2CC(c3cccs3)=NN2C(=O)c2ccco2)cc1OC` (stereo not given), the IC50 growth inhibition is 83.6 µM. Turning to `COc1cccc2c1C(=O)c1c(O)c3c(c(O)c1C2=O)CC(O)(C(=O)CO)CC3OC1CC(N)C(O)C(C)O1` (stereo not given) [Doxorubicin], the IC50 growth inhibition turned out to be 11.2 µM. The result for `Cc1cccc(-n2ncc3c(=O)[nH]c(-n4nc(C)cc4NC(=O)c4cc5ccccc5o4)nc32)c1` reads 7.06 µM. Regarding `Cc1cc(C(=O)Cn2c(CO)nc3ccccc32)c(C)n1-c1ccccc1`, the IC50 growth inhibition was 62.4 µM. The result for `O=C(Nc1nnc(-c2ccc(Cl)cc2)o1)c1cccc(C(F)(F)F)c1` reads 71.2 µM; that for `COc1ccc(C2Sc3ccccc3N=C3C2=C(O)c2ccccc23)cc1` (stereo not given) [GNF-Pf-5129], 3.97 µM; that for `COC(=O)Nc1nc2ccc(C(=O)c3ccccc3)cc2[nH]1` [Mebendazole], 5.42 µM.

Regarding `CCC1(O)C(=O)OCc2c1cc1n(c2=O)Cc2cc3ccccc3nc2-1` (stereo not given) [Camptothecin], the IC50 growth inhibition is 1.61 µM. For the compound `COc1ccc(Oc2ccc([C@@H](C)N(C)c3ncc4c(N)nc(N)nc4n3)cc2)cc1`, the IC50 growth inhibition was 30.5 µM. `O=C(Nc1cc(Oc2cc(F)c(NC(=O)C3(C(=O)Nc4ccc(F)cc4)CC3)cc2F)ccn1)C1CC1` [Altiratinib] showed an IC50 growth inhibition greater than 75 µM.

With `CCCCc1oc2ccccc2c1C(=O)c1cc(I)c(OCCN(CC)CC)c(I)c1` [Amiodarone], the IC50 growth inhibition came to 5.72 µM.

Turning to `CC(=O)c1ccc(-c2ccc(C(=O)N3CCCc4ccccc43)o2)cc1`, the IC50 growth inhibition was found to be 52.4 µM. With `CCCCc1ccc(C(=O)Nc2nccc3ccccc23)nc1`, the IC50 growth inhibition was determined as 54.7 µM. Under `C=CCc1c(C)nc2c(-c3ccccc3)cnn2c1N1CCN(CCO)CC1` stands 62.8 µM. Under `CC1COC(Cn2cncn2)(c2ccc(Oc3ccc(Cl)cc3)cc2Cl)O1` (stereo not given) stands 39 µM; under `O=c1c(Cl)c(Cl)cnn1-c1nc2ccccc2[nH]1`, 13.2 µM. Under `CCOC(=O)c1c(NC(=O)c2c(F)c(F)c(F)c(F)c2F)sc(C(N)=O)c1C` stands 47.8 µM; under `O=C(COc1cccc(F)c1)Nc1nc(-c2ccccn2)cs1`, 35.1 µM. Consider `Cc1cc(NC(=O)C(C)C)n(-c2nc(C)c(C)c(=O)[nH]2)n1`, for which the IC50 growth inhibition was 3.87 µM. The result for `Cc1c(C)n(CCCN(C)C)c2ncn3nc(-c4ccc(N(C)C)cc4)nc3c12` reads 42.3 µM; that for `O=C1c2ccccc2C2=Nc3ccccc3SC(c3ccccc3F)C12` (stereo not given) [GNF-Pf-3582], 5.87 µM.

`Cc1nc(C(=N)NOC(=O)c2c(-c3c(Cl)cccc3Cl)noc2C)cs1`: the IC50 growth inhibition was 21.2 µM. The result for `O=C(C1CCCCC1)N1CC(=O)N2CCc3ccccc3C2C1` (stereo not given) [Praziquantal] reads greater than 75 µM; that for `COC1=CC(C)=CC(C)C(O)C(C)CC(C)=CC=CC(OC)C(C(C)C(O)C(C)C2(O)CC(O)C(C)C(C(C)C)O2)OC1=O` (stereo not given) [Bafilomycin A1], 0.164 µM. Regarding `CCC(=C(c1ccccc1)c1ccc(OCCN(C)C)cc1)c1ccccc1` [Tamoxifen], the IC50 growth inhibition worked out at 3.13 µM.

`COc1cc(C)c2c(Oc3cccc(C(F)(F)F)c3)c(OC)cc(NC(C)CCCN)c2n1` (stereo not given) [Tafenoquine] yielded an IC50 growth inhibition of 101 µM. Compound `CC1CCCC=CC2CC(O)CC2C(O)C=CC(=O)O1` (stereo not given) [Brefeldin A] yielded an IC50 growth inhibition of 31.9 µM.

The compound `CN(C)c1ccc(C(O)(c2ccc(N(C)C)cc2)c2ccc(N(C)C)cc2)cc1` returned an IC50 growth inhibition of 0.317 µM. `CC(=O)OC1c2nc(cs2)C(=O)OC(CCCC(C)(Cl)Cl)C(C)C(=O)OC(C(C)(C)O)c2nc(cs2)C(=O)OC1(C)C` (stereo not given) [Hectochlorin]: the IC50 growth inhibition was 0.25 µM. The result for `CC(=O)NCC1CN(c2ccc(-c3ccc(CNCc4cn[nH]n4)cc3)c(F)c2)C(=O)O1` (stereo not given) [Radezolid] reads greater than 75 µM. Under `Cc1ccc(S(=O)(=O)n2cc(-c3ccnc(N)c3)c3cc(Br)cnc32)cc1` stands 6.17 µM. Under `CC(C)(C)C1CCc2[nH]c3ccccc3c(=O)c2C1` (stereo not given) [GNF-Pf-3815] stands 60.3 µM; under `CC[C@@H]([C@H](C)O)n1ncn(-c2ccc(N3CCN(c4ccc(OC[C@@H]5CO[C@@](Cn6cncn6)(c6ccc(F)cc6F)C5)cc4)CC3)cc2)c1=O`, 50 µM; under `CCS(=O)(=O)N1CCN(c2ccc(Nc3ncc(C(N)=O)c(NC4CC4)n3)cc2)CC1` [Cerdulatinib], 8.06 µM.

In turn, `COC1OC2OC3(C)CCC4C(C)CCC(C1C)C24OO3` (stereo not given) [Artemether] returned an IC50 growth inhibition of 70.6 µM. Under `CCC1(O)C(=O)OCc2c1cc1n(c2=O)Cc2cc3c(CN(C)C)c(O)ccc3nc2-1` (stereo not given) [Topotecan] stands greater than 75 µM; under `CCCC(CCC)C(=O)O` [Valproic acid], greater than 75 µM. `Cl.c1ccc(C2CCCC2NC2=NCCCCCCCCCCC2)cc1` (stereo not given) [MDL-12] showed an IC50 growth inhibition of 54.6 µM. On to `CNC(=O)c1ccccc1Nc1nc(Nc2ccc3c(c2OC)CCC[C@H](N2CCN(CCO)CC2)C3)ncc1Cl`, for which the IC50 growth inhibition stood at 37.7 µM.

In the case of `Nc1ccc2ncnc(Nc3ccc(OCc4cccc(F)c4)c(Cl)c3)c2c1`, the IC50 growth inhibition came to 18.7 µM. Under `COC1CC2CCC(C)C(O)(O2)C(=O)C(=O)N2CCCCC2C(=O)OC(C(C)CC2CCC(OCCO)C(OC)C2)CC(=O)C(C)C=C(C)C(O)C(OC)C(=O)C(C)CC(C)C=CC=CC=C1C` (stereo not given) [Everolimus] stands 0.0415 µM; under `CCn1nc(-c2ccc(C(=O)OC)cc2)nc2c(=O)n(C)c(=O)nc1-2`, 0.601 µM; under `CC(C)(C)C(O)C(Oc1ccc(-c2ccccc2)cc1)n1cncn1` (stereo not given), 70 µM. `CNC1CC2OC(C)(C1OC)n1c3ccccc3c3c4c(c5c6ccccc6n2c5c31)C(=O)NC4` (stereo not given) [Staurosporine] displayed an IC50 growth inhibition of 0.206 µM. The result for `Oc1ccc(C(=C(Cl)Cl)c2ccc(O)cc2)cc1` reads 6.96 µM; that for `CC1CC(C)C(=O)C(C(O)CC2CC(=O)NC(=O)C2)C1` (stereo not given) [Cycloheximide], 0.0378 µM. The result for `COc1ccc(-c2cnc3ccc(N4CCCC4)nn23)cc1OC` reads 68.5 µM; that for `O=C(Nc1ccc(Cl)c(Cl)c1)Nc1ccc(Cl)c(Cl)c1`, 0.32 µM; that for `Br.Cc1ccnc(Nc2nc(-c3ccccn3)cs2)c1` [GNF-Pf-4739], 4.6 µM. With `CCCC(=O)NC(c1ccc(Cl)cc1)c1ccc2cccnc2c1O` (stereo not given) [GNF-Pf-3257], the IC50 growth inhibition amounted to 55.9 µM.
